EP4603105A1, “PHARMACEUTICAL COMPOSITION CONTAINING CYCLIC COMPOUND HAVING SELECTIVE KRAS INHIBITORY EFFECT AGAINST HRAS AND NRAS” (CHUGAI SEIYAKU KABUSHIKI KAISHA, priority 2022, dated 2024)
pIC50: −log10 of the molar value. *1 amine or outer side, *2 acyl side, *3 side chain or, on linkers, in order; H or OH if unused. Where a SMILES comes first, the peptide text is derived from it. Bridges are numbered along the chain shown (N, C = ends). [ ]: non-standard residue; d: D form. The star is where a group is joined. hPhe(3-Cl-4-CF3) = N[C@@H](CCc1ccc(C(F)(F)F)c(Cl)c1)C(=O)O; X28 = Cc1ccc(C[C@@H](C(=O)[*:2])N(CC2CCCCC2)[*:1])cc1; NEtPhe(4-Me) = CCN[C@@H](Cc1ccc(C)cc1)C(=O)O; NMeGly(cPent) = CN[C@H](C(=O)O)C1CCCC1; NMeD = CN[C@@H](CC(=O)O)C(=O)O; NMeL = CN[C@@H](CC(C)C)C(=O)O; Morpholide = C1CN(*)CCO1; NMeA = CN[C@@H](C)C(=O)O; Ac5c = NC1(C(=O)O)CCCC1; Sar = CNCC(=O)O

Tests used:
[1] = tested on: human lung cancer strain NCI-H441; format: cell-based
Summary of the method: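 Step one: dispense the test compound in serial DMSO dilutions. Step three: add the reagent and measure […].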

[2] = biological target: GDP-bound NRAS wild-type protein (Homo sapiens, UniProt P01111); assay: Binding to NRAS by surface plasmon resonance (SPR), KD and KD ratio to KRAS
Summary of the method: (§1)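 Captured GDP-RAS (~100–300 RU) was exposed to increasing compound concentrations, 75 s per step, in running buffer with 10 µM GDP, 10 mM MgCl2 and 4% DMSO at pH 7.4.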

HRAS wild-type protein = HRAS wild-type protein (Homo sapiens, UniProt P01112); assay: Binding to HRAS by surface plasmon resonance (SPR), KD and KD ratio to KRAS
Summary of the method: as §1

[3] = ratio of KD for GDP-bound NRAS wild-type protein to KD for KRAS
[4] = ratio of KD for HRAS wild-type protein to KD for KRAS
[5] = ratio of KD value for GDP-bound NRAS wild-type protein to KD value for KRAS (SPR)
[6] = ratio of KD value for HRAS wild-type protein to KD value for KRAS (SPR)

Sequence of GDP-bound NRAS wild-type protein (P01111 whole entry): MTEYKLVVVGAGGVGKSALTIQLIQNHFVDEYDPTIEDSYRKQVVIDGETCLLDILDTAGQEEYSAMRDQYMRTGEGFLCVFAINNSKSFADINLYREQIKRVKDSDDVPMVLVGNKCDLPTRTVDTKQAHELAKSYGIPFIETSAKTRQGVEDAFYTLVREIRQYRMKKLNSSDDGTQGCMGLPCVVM
Sequence of HRAS wild-type protein (P01112 whole entry): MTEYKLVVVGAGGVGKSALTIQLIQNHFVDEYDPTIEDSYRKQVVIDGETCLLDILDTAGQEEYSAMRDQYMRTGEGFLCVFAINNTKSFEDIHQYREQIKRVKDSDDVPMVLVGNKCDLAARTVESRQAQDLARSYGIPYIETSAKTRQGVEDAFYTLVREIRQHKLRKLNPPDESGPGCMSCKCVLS

| Structure (SMILES) | pIC50 [1] | NRAS /KRAS [2, 3] | HRAS /KRAS (HRAS wild-type protein; [4]) | NRAS /KRAS [2, 5] | HRAS /KRAS (HRAS wild-type protein; [6]) | NRAS /KRAS ([2]; ratio of the KD value with respect to GDP-bound NRAS wild-type protein to the KD value with respect to KRAS) | HRAS /KRAS (HRAS wild-type protein; ratio of the KD value with respect to HRAS wild-type protein to the KD value with respect to KRAS) |
| --- | --- | --- | --- | --- | --- | --- | --- |
| CC[C@H](C)[C@@H]1NC(=O)[C@H](C)N(C)C(=O)C[C@@H](C(=O)N2CCOCC2)N(C)C(=O)[C@H](C2CCCC2)N(C)C(=O)C2(CCCC2)NC(=O)[C@@H]2CCCN2C(=O)[C@H](CCc2ccc(C(F)(F)F)c(Cl)c2)NC(=O)CN(C)C(=O)[C@H](Cc2ccc(C)cc2)N(CC)C(=O)CN(C)C(=O)CN(C)C1=O [PP0031] ([NMeA]I[Sar][Sar][NEtPhe(4-Me)][Sar][hPhe(3-Cl-4-CF3)]P[Ac5c][NMeGly(cPent)][NMeD]-Morpholide; lactam N-11) | 7.94 | B (a compound having 3 or more and less than 10 is denoted as B) | C (A compound having a KD ratio of 0.1 or more and less than 3 is denoted as C) |  |  |  |  |
| CCO[C@@H]1C[C@H]2C(=O)NC3(CCC3)C(=O)N(C)[C@@H](C3CCCC3)C(=O)N(C)[C@H](C(=O)N3CCOCC3)CC(=O)N(C)[C@@H](CC(C)C)C(=O)N[C@@H]([C@@H](C)CC)C(=O)N(C)CC(=O)N(C)[C@H]3CC=CCN(C3=O)[C@@H](Cc3ccc(C(F)(F)F)cc3)C(=O)N(C)CC(=O)N[C@@H](CCc3cc(F)c(C(F)(F)F)c(F)c3)C(=O)N2C1 [PP0832] | 7.67 | C (A compound having a KD ratio of 0.1 or more and less than 3 is denoted as C) | C (A compound having a KD ratio of 0.1 or more and less than 3 is denoted as C) |  |  |  |  |
| CCO[C@@H]1C[C@H]2C(=O)NC3(CCC3)C(=O)N(C)[C@@H](C(CC)CC)C(=O)N(C)[C@H](C(=O)N(C)C)CC(=O)N(C)[C@@H](CC3CCCC3)C(=O)N[C@@H]([C@@H](C)CC)C(=O)N(C)CC(=O)N(C)[C@H]3C/C=C\CCN(C3=O)[C@@H](Cc3ccc(F)cc3C)C(=O)N(C)CC(=O)N[C@@H](CCc3cc(F)c(C(F)(F)F)c(F)c3)C(=O)N2C1 [PP1516] | 7.34 |  |  | A (a compound having 10 or more and less than 20 is denoted as A) | B (a compound having 3 or more and less than 10 is denoted as B) |  |  |
| CC[C@H](C)[C@@H]1NC(=O)[C@@H]2CCC/C=C/c3ccc(cc3)C[C@@H](C(=O)N(C)CC(=O)N[C@@H](CCc3ccc(Cl)c(Cl)c3)C(=O)N3C[C@H](OC4CCC4)C[C@H]3C(=O)NC3(CC(C)(C)C3)C(=O)N(C)[C@@H](C3CCCC3)C(=O)N(C)[C@H](C(=O)N3CCCC3)CC(=O)N2C)N2CC/C=C\C[C@@H](C2=O)N(C)C(=O)CN(C)C1=O [PP3053] | 7.57 | A (a compound having 10 or more and less than 20 is denoted as A) | A (a compound having 10 or more and less than 20 is denoted as A) |  |  |  |  |
| CC[C@H](C)[C@@H]1NC(=O)[C@H](C2CC2)N(C)C(=O)C[C@@H](C(=O)N(C)C)N(C)C(=O)[C@H](C2CCCC2)N(C)C(=O)C2(CCC2)N(C)C(=O)[C@@H]2CCCN2C(=O)[C@H](CCc2cc(F)c(C(F)(F)F)c(F)c2)NC(=O)CN(C)C(=O)[C@H](Cc2ccc(C)cc2)N2CC/C=C\C[C@@H](C2=O)N(C)C(=O)CN(C)C1=O [PP1784] | 8.11 |  |  | A (a compound having 10 or more and less than 20 is denoted as A) | B (a compound having 3 or more and less than 10 is denoted as B) |  |  |
| CCO[C@@H]1C[C@H]2C(=O)NC3(CCC3)C(=O)N(C)[C@@H](C3CCCC3)C(=O)N(C)[C@H](C(=O)N(C)C)CC(=O)N(C)[C@@H](CC)C(=O)N[C@@H]([C@@H](C)CC)C(=O)N(C)CC(=O)N(C)[C@H]3CCCCN(C3=O)[C@@H](Cc3ccc(C(F)(F)F)cc3)C(=O)N(C)CC(=O)N[C@@H](CCc3ccc4sccc4c3)C(=O)N2C1 [PP0887] | 7.72 | C (A compound having a KD ratio of 0.1 or more and less than 3 is denoted as C) | C (A compound having a KD ratio of 0.1 or more and less than 3 is denoted as C) |  |  |  |  |

More lines, main results first:

| pIC50 [1] | Structure (SMILES) | NRAS /KRAS [2, 3] | HRAS /KRAS (HRAS wild-type protein; [4]) | NRAS /KRAS [2, 5] | HRAS /KRAS (HRAS wild-type protein; [6]) | NRAS /KRAS ([2]; ratio of the KD value with respect to GDP-bound NRAS wild-type protein to the KD value with respect to KRAS) | HRAS /KRAS (HRAS wild-type protein; ratio of the KD value with respect to HRAS wild-type protein to the KD value with respect to KRAS) |
| --- | --- | --- | --- | --- | --- | --- | --- |
| 8.57 | CCO[C@@H]1C[C@H]2C(=O)NC3(CC(C)(C)C3)C(=O)N(C)[C@@H](C3CCCC3)C(=O)N(C)[C@H](C(=O)N(C)C)CC(=O)N(C)[C@@H](CC(F)(F)F)C(=O)N[C@@H]([C@@H](C)CC)C(=O)N(C)CC(=O)N(C)[C@H]3C/C=C\CCN(C3=O)[C@@H](Cc3ccc(C(F)(F)F)cc3)C(=O)N(C)CC(=O)N[C@@H](CCc3cc(F)c(C(F)(F)F)c(F)c3)C(=O)N2C1 [PP1644] |  |  | A (a compound having 10 or more and less than 20 is denoted as A) | A (a compound having 10 or more and less than 20 is denoted as A) |  |  |
| 8.24 | CCO[C@@H]1C[C@H]2C(=O)NC3(CC(C)(C)C3)C(=O)N(C)[C@@H](C3CCCC3)C(=O)N(C)[C@H](C(=O)N(C)C)CC(=O)N(C)[C@@H](CC3CCC3)C(=O)N[C@@H]([C@@H](C)CC)C(=O)N(C)CC(=O)N(C)[C@H]3C/C=C\CCN(C3=O)[C@@H](Cc3ccc(C(F)(F)F)cc3)C(=O)N(C)CC(=O)N[C@@H](CCc3ccc(C(F)(F)F)c(Cl)c3)C(=O)N2C1 [PP1752] |  |  | A (a compound having 10 or more and less than 20 is denoted as A) | A (a compound having 10 or more and less than 20 is denoted as A) |  |  |
| 7.91 | CC[C@H](C)[C@@H]1NC(=O)[C@H](CC)N(C)C(=O)C[C@@H](C(=O)N(C)CC)N(C)C(=O)[C@H](C2CCCC2)N(C)C(=O)C2(CC(C)(C)C2)NC(=O)[C@@H]2C[C@@H](C)CN2C(=O)[C@H](CCc2ccc(C(F)(F)F)c(OC)c2)NC(=O)CN(C)C(=O)[C@H](Cc2ccc(C)cc2)N2CC/C=C\C[C@@H](C2=O)N(C)C(=O)CN(C)C1=O [PP1870] |  |  | A (a compound having 10 or more and less than 20 is denoted as A) | A (a compound having 10 or more and less than 20 is denoted as A) |  |  |
| 7.30 | CCC[C@H]1C(=O)N[C@@H]([C@@H](C)CC)C(=O)N(C)CC(=O)N(C)[C@H]2C/C=C\CCN(C2=O)[C@@H](Cc2ccc(C(F)(F)F)cc2)C(=O)N(C)CC(=O)N[C@@H](CCc2ccc(C(F)(F)F)c(OC)c2)C(=O)N2CCOC[C@H]2C(=O)NC2(CC(C)(C)C2)C(=O)N(C)[C@@H](C(CC)CC)C(=O)N(C)[C@H](C(=O)N(C)C)CC(=O)N1C [PP2935] | A (a compound having 10 or more and less than 20 is denoted as A) | A (a compound having 10 or more and less than 20 is denoted as A) |  |  |  |  |
| 7.74 | CCCN(C)C(=O)[C@@H]1CC(=O)N(C)[C@@H](CCOC)C(=O)N[C@@H]([C@@H](C)CC)C(=O)N(C)CC(=O)N(C)[C@H]2C/C=C\CCN(C2=O)[C@@H](Cc2ccc(C(F)(F)F)cc2)C(=O)N(C)CC(=O)N[C@@H](CCc2ccc(C(F)(F)F)c(OC)c2)C(=O)N2C[C@@H](C)C[C@H]2C(=O)NC2(CC(C)(C)C2)C(=O)N(C)[C@@H](C2CCCC2)C(=O)N1C [PP2001] |  |  |  |  | A (a compound having 10 or more and less than 20 is denoted as A) | A (a compound having 10 or more and less than 20 is denoted as A) |
| 6.62 | CC[C@H](C)[C@@H]1NC(=O)[C@H](CC(C)C)N(C)C(=O)C[C@@H](C(=O)N2CCOCC2)N(C)C(=O)[C@H](C2CCCC2)N(C)C(=O)C2(CCCC2)NC(=O)[C@@H]2CCCN2C(=O)[C@H](CCc2ccc(C(F)(F)F)c(Cl)c2)NC(=O)CN(C)C(=O)[C@H](Cc2ccc(C)cc2)N(CC2CCCCC2)C(=O)CN(C)C(=O)CN(C)C1=O [PP0097] ([NMeL]I[Sar][Sar][X28][Sar][hPhe(3-Cl-4-CF3)]P[Ac5c][NMeGly(cPent)][NMeD]-Morpholide; lactam N-11) | C (A compound having a KD ratio of 0.1 or more and less than 3 is denoted as C) | C (A compound having a KD ratio of 0.1 or more and less than 3 is denoted as C) |  |  |  |  |
